Laboratory results taken from a melting point compilation (Tetko et al.; mined from patent text by program, amines drawn as free bases though some values may be those of a salt).

| melting point [°C] | SMILES |
| --- | --- |
| 174 to 175 | COCCOCCOc1cc(OC)c(/C=C/C(=O)c2ccc(C(=O)O)cc2)cc1-c1cccs1 |
| 75 to 76 | O=C1OCCC1C(=O)c1ccccc1[N+](=O)[O-] (centres undefined) |
| 126 to 129 | CN1CCN(C2(CN(C)C(=O)c3ccc(Cl)c(Cl)c3)CCCCC2)CC1 |
| 109 to 110 | CCOC(=O)CCCOc1ccc(C2=NNC(=O)CC2)cc1Cl |
| 104 to 106 | COc1ccc(N2C(=O)C(O[Si](C(C)C)(C(C)C)C(C)C)C2C=Cc2ccco2)cc1 (centres undefined) |
| 148 | CC(C)n1nc(O)ccc1=O |
| 235 | CCCC(=O)Nc1n[nH]c2cc(-c3ccc(O)cc3)ccc12 |
| 88 to 89 | CCOC(=O)c1cn(-c2ccc(C(F)(F)F)cn2)nc1C |
| 75 to 77 | Cc1ccc(S(=O)(=O)OC2CC3(C)C=CC(C)(C2)O3)cc1 (centres undefined) |
| 150 to 153 | COc1ccc(-c2cnc(N)c(Cc3ccccc3)n2)cc1 |
| 124 | OC(Cc1ccc(Cl)cc1Cl)(Cn1cncn1)c1ccc(-c2ccccc2)cc1 (centres undefined) |
| 215 to 217 | COc1cc(Nc2c(C#N)cnc3cc(Cl)c([N+](=O)[O-])cc23)cc(OC)c1OC |
| 139 | COc1cc(C)cc(OC)c1NC(=O)CC(C)C |
| 243 to 245 | Cc1cc(=O)[nH]nc1-c1ccc2c(c1)CC1(CCN(C3CCC3)CC1)O2 |
| 186 to 188 | Cc1ccc([N+](=O)[O-])cc1Nc1nccc(-c2cccnc2)n1 |
| 150 | CC1=CC(c2ccccc2)C(c2cccs2)=NN1 (centres undefined) |
| 56 to 58 | COCC(C)(C)Cc1cc(N(C)C)ccn1 |
| 127 to 128 | Cc1ncsc1C(C)(O)c1ccco1 (centres undefined) |
| 69 to 71 | COc1cccc2c1CCCC2N1CCN(C)CC1 (centres undefined) |
| 137 to 138 | CCc1cnc(N2CCN(c3nc(-c4ccccc4)nc4ccccc34)CC2)nc1 |
| 323 to 325 | CCCOc1cc(C)ccc1C1=NC(=O)C2=NC=NC2=N1 |
| 180 | Cc1cccc(-c2ccc3ccc(N)nc3n2)c1 |
| 161 to 162 | COC(=O)c1ccccc1COc1ccc(-c2cc(O)c(SCCc3ccccc3)c(=O)o2)cc1 |
| 222 to 233 | Cc1cnc2c(NC(=O)c3c(Cl)cccc3Cl)ccc(Cl)c2c1Cl |

| melting point [°C] | SMILES |
| --- | --- |
| 120 to 122 | Cn1c(C(F)(F)F)cc(F)c(-c2ccc(Cl)cc2)c1=O |
| 122 to 123 | CCOc1nn(Cc2ccc(OCc3nc(-c4ccccc4)oc3C)c(OC)c2)cc1CCC(=O)O |
| 138 to 140 | CC(C)(C)NS(=O)(=O)c1ccccc1-c1ccc(CBr)c(F)c1 |
| 160 | COc1ccc(-c2cccc3c2C(=O)OC(C)(C)O3)cn1 |
| 251 to 253 | CC1COC2(CCN(c3nc(=O)c4cc(C#N)cc([N+](=O)[O-])c4s3)CC2)O1 (centres undefined) |
| 146 to 147 | O=C1c2ccccc2C(=O)N1CCCOc1cccc2c(N3CCCCC3)nccc12 |
| 50 to 51 | C/C(=C\CC1SC(=O)NC1=O)c1cccc(OCc2nc(-c3ccc(OC(F)(F)F)cc3)oc2C)c1 (centres undefined) |
| 189 to 191 | COc1cccc(NC(=O)c2ccc([N+](=O)[O-])cc2)c1 |
| 195 to 196 | COc1cc(OCC(=O)O)cc2c1C(=O)CC1(CCCCC1)S2 |
| 184 to 185 | COc1nc(C)cnc1NS(=O)(=O)c1ccccc1-c1ccc(C)cc1 |
| 94 to 99 | O=C(O)CCCNC(=O)NCCCCC1CCSS1 (centres undefined) |
| 180 to 181 | CNc1nc(S(=O)(=O)Nc2c(F)cccc2F)nn1-c1ccccc1 |
| 100 | CC(C)(Oc1ccc(Cl)cc1)C(=O)C(Oc1cccc(Cl)n1)n1cncn1 (centres undefined) |
| 143 | CCCC(=O)O[C@H]1[C@H](OCc2ccccc2)[C@@H](OCc2ccccc2)[C@H](OCc2ccccc2)[C@@H](OCc2ccccc2)[C@]1(O)CCC (racemic) |
| 74 to 76 | N#CCN1C(=O)CC=C(C2(c3ccccc3)C=C3C=CC=CN3N2)N1C1=CCCCC1 (centres undefined) |
| 114 to 116 | COc1ccc(C(=O)CC(C)(C)C(=O)O)cc1OC |
| 236 | CC(C)(C)Nc1c(NCc2cc(Cl)ccc2Cl)c(=O)c1=O |
| 233 to 235 | Cc1c(-c2ccncc2)[nH]c2ccc(C3=NNC(=O)CC3C)cc12 (centres undefined) |
| 145 to 148 | CC1(C)OC[C@H](COn2cnc3c(Cl)nc(NC=O)nc32)O1 |
| 124 to 127 | CCCCCCC(O)CNCCCCCCNCC(O)CCCCCC (centres undefined) |
| 118 to 121 | O=c1oc(=O)n(CC2CC2)c2ccccc12 |
| 200 to 202 | CC(=O)OCCNC(=O)NCc1ccc(-c2csc(N=C(N)N)n2)o1 |
| 168 to 171 | O=S(=O)(c1ccccc1)n1c(C(O)c2ccoc2)cc2ccncc21 (centres undefined) |
| 160 to 163 | O=C1NCCc2c(-c3cccc(-c4ccccc4)c3)[nH]c3cccc1c23 |

| melting point [°C] | SMILES |
| --- | --- |
| 91 to 94 | CC(=O)OC1(N=NC2(OC(C)=O)CCCCC2)CCCCC1 |
| 106 to 108 | C=CCOc1ccc(C[C@H](NC(=O)OC(C)(C)C)C(=O)N[C@H](C(=O)N[C@@H](CC=C)C(=O)OC)C(C)C)cc1 |
| 165 to 168 | CCN(C)c1nsc(NC(=O)NC)c1C(N)=O |
| 205 to 206 | COC(=O)NC1CCc2sc(C3=NNC(=O)CC3)cc2C1 (centres undefined) |
| 170 to 172 | CN1C(=O)c2ccccc2C(C(=O)O)C1c1ccc(OCc2ccccc2)c(OCc2ccccc2)c1 (centres undefined) |
| > 300 | O=C(O)c1c2c(nc3ccc(F)cc13)-c1ccc(-c3ccccc3F)cc1CC2 |
| 194 to 197 | O=C1CCc2cccc3c2N1C(=O)C3 |
| 205 to 207 | CN1C(=O)C(NC(=O)CC2CCCCC2)N=C(N2CCCCCC2)c2ccccc21 (centres undefined) |
| 115 | COC(COc1ccc(C(=O)NCC(NC(=O)OCc2ccccc2)C(=O)OC(C)(C)C)cc1)OC (centres undefined) |
| 121 to 124 | CCc1cn(C2CC(O)C(CNCc3ccccc3)O2)c(=O)[nH]c1=O (centres undefined) |
| 139 to 141 | C=C(Cn1ccnc1)c1ccccc1O |
| 171 to 177 | Cn1nc(-c2c(F)cccc2F)nc1-c1ccc(OCc2ccc(C(F)(F)F)cc2)c(Cl)c1 |
| 177 to 178 | Cc1ccc2c(c1)C1=NN(C(=O)c3cccnc3)CC1CO2 (centres undefined) |
| 124 to 126 | CCN(C=Nc1ccc2c(c1)nc(N(C)C)c1cc(N=CN(CC)CC)ccc12)CC |
| > 300 | N#Cc1ccc(Nc2ncc(Cl)c(O)n2)cc1 |
| 139 to 142 | O=c1oc(-c2ccccc2)cc(O)c1C(SC1CCCC1)C1CCCC1 (centres undefined) |
| 124 to 125 | CC(C)(O)c1cccc(OCc2nc3cc(F)ccc3s2)c1 |
| 166 to 168 | CCc1nnc2c(NC3CCCC3)nc3ccccc3n12 |
| 92 to 93 | C=CCN(C(=O)OCc1ccccc1)c1cc(F)c(-c2cccnc2)c(F)c1 |
| 158 | CC(=S)NC[C@H]1CN(c2ccc(N3CCOCC3)c(F)c2)C(=O)O1 |
| 90 to 107 | CCOC(=O)Cn1cnc2c(Cl)nc(NC(=O)c3ccc(C4CCCCC4)cc3)nc21 |
| 78 to 80 | COc1cc(OC)c2ccsc2c1 |
| 58.8 | N#CC(CC1CCCCC1)c1ccc(Cl)cc1Cl (centres undefined) |
| 70 | Nc1ncc(F)cc1I |

| SMILES | melting point [°C] |
| --- | --- |
| CC1(CS(=O)(=O)c2ccccc2)COC2(CCC(=O)CC2)OO1 (centres undefined) | 96 |
| O=C(O)c1ncn2c1[C@@H]1CCCN1C(=O)c1cc(Cl)ccc1-2 | 227 |
